Source: patent publication US20250188092A1, “RIFAMYCIN ANALOGS” (THE REGENTS OF THE UNIVERSITY OF MICHIGAN, priority 2021, published 2025)
Like-named read-outs stand apart in the source and are kept apart here.

Test system: non-replicating cultures of M. tuberculosis H37Rv transformed with lux ABCDE
Experiment: microbe, parasite or virus in culture
Format: cell-based, Mycobacterium tuberculosis
Details: for MIC / MIC90: ≥90% reduction in luminescence, read-out: MIC90 LORA; for MIC90 LORA/MABA: ratio of LORA MIC90 to MABA MIC90
[1] = Mycobacterium tuberculosis, H37RV

Structure (SMILES) | MIC90 LORA Rel to RMP | MIC [1] | MIC90 LORA/MABA | MIC90 [1] | MIC90
CO[C@H]1/C=C/O[C@@]2(C)Oc3c(C)c(O)c4c(=O)c(c5oc6cc(N7CCN(CC(C)C)CC7)cc(OCc7ccc(CN8CCNCC8)cc7)c6nc-5c4c3C2=O)NC(=O)/C(C)=C\C=C\[C@H](C)[C@H](O)[C@@H](C)[C@@H](O)[C@@H](C)[C@H](OC(C)=O)[C@@H]1C [Compound 17b, (7S,9E,11S,12R,13S,14R,15R,16R,17S,18S,19E,21Z)-2,15,17-Trihydroxy-11-methoxy-3,7,12,14,16,18,22-heptamethyl-30-[4-(2-methylpropyl)piperazin-1-yl]-6,23,37-trioxo-32-({4-[(piperazin-1-yl)methyl]phenyl}methoxy)-8,27,38-trioxa-24,34-diazahexacyclo[23.11.1.1^4,7.0^5,36.0^26,35.0^28,33]octatriaconta-1(36)2,4,9,19,21,25,28,30,32,34-undecaen-13-yl acetate] | 1.3 | < 0.016 µM |  |  | 
CO[C@H]1/C=C/O[C@@]2(C)Oc3c(C)c(O)c4c(=O)c(c5oc6cc(N7CCN(CC(C)C)CC7)cc(OCCCCN7CCN(CCn8ccnc8)CC7)c6nc-5c4c3C2=O)NC(=O)/C(C)=C\C=C\[C@H](C)[C@H](O)[C@@H](C)[C@@H](O)[C@@H](C)[C@H](OC(C)=O)[C@@H]1C [Compound 6b, (7S,9E,11S,12R,13S,14R,15R,16R,17S,18S,19E,21Z)-2,15,17-trihydroxy-32-(4-{4-[2-(1H-imidazol-1-yl)ethyl]piperazin-1-yl}butoxy)-11-methoxy-3,7,12,14,16,18,22-heptamethyl-30-[4-(2-methylpropyl)piperazin-1-yl]-6,23,37-trioxo-8,27,38-trioxa-24,34-diazahexacyclo[23.11.1.1^4,7.0^5,36.0^26,35.0^28,33]octatriaconta-1(36)2,4,9,19,21,25,28(33)29,31,34-undecaen-13-yl acetate] | 0.05 | 0.05 µM | 2.4 |  | 
CO[C@H]1/C=C/O[C@@]2(C)Oc3c(C)c(O)c4c(=O)c(c5oc6cccc(OCc7cccc(CN8CCN(C(=O)Cn9ccnc9)CC8)c7)c6nc-5c4c3C2=O)NC(=O)/C(C)=C\C=C\[C@H](C)[C@H](O)[C@@H](C)[C@@H](O)[C@@H](C)[C@H](OC(C)=O)[C@@H]1C [Compound 11e, (7S,9E,11S,12R,13S,14R,15R,16R,17S,18S,19E,21Z)-2,15,17-Trihydroxy-32-{[3-({4-[2-(1H-imidazol-1-yl)acetyl]piperazin-1-yl}methyl)phenyl]methoxy}-11-methoxy-3,7,12,14,16,18,22-heptamethyl-6,23,37-trioxo-8,27,38-trioxa-24,34-diazahexacyclo[23.11.1.1^4,7.0^5,36.0^26,35.0^28,33]octatriaconta-1(36)2,4,9,19,21,25,28,30,32,34-undecaen-13-yl acetate] | 0.26 | 0.078 µM | 1.6 |  | 
CO[C@H]1/C=C/O[C@@]2(C)Oc3c(C)c(O)c4c(=O)c(c5oc6cc(C)cc(N7CCN(C(=O)c8ccc9occc9c8)CC7)c6nc-5c4c3C2=O)NC(=O)/C(C)=C\C=C\[C@H](C)[C@H](O)[C@@H](C)[C@@H](O)[C@@H](C)[C@H](OC(C)=O)[C@@H]1C [Compound 30h, (7S,9E,11S,12R,13S,14R,15R,16R,17S,18S,19E,21Z)-32-[4-(1-Benzofuran-5-carbonyl)piperazin-1-yl]-2,15,17-trihydroxy-11-methoxy-3,7,12,14,16,18,22,30-octamethyl-6,23,37-trioxo-8,27,38-trioxa-24,34-diazahexacyclo[23.11.1.1^4,7.0^5,36.0^26,35.0^28,33]octatriaconta-1(36)2,4,9,19,21,25,28,30,32,34-undecaen-13-yl acetate] | 0.20 |  | 2.2 | 0.042 µM | 
CO[C@H]1/C=C/O[C@@]2(C)Oc3c(C)c(O)c4c(=O)c(c5oc6cc(C)cc(N7CCN(CC(C)C)CC7)c6nc-5c4c3C2=O)NC(=O)/C(C)=C\C=C\[C@H](C)[C@H](O)[C@@H](C)[C@@H](O)[C@@H](C)[C@H](OC(C)=O)[C@@H]1C [Compound 30c, (7S,9E,11S,12R,13S,14R,15R,16R,17S,18S,19E,21Z)-2,15,17-Trihydroxy-11-methoxy-3,7,12,14,16,18,22,30-octamethyl-32-[4-(2-methylpropyl)piperazin-1-yl]-6,23,37-trioxo-8,27,38-trioxa-24,34-diazahexacyclo[23.11.1.1^4,7.0^5,36.0^26,35.0^28,33]octatriaconta-1(36)2,4,9,19,21,25,28,30,32,34-undecaen-13-yl acetate] | <0.06 |  |  | < 0.016 µM | 
CO[C@H]1/C=C/O[C@@]2(C)Oc3c(C)c(O)c4c(=O)c(c5oc6cc(C)cc(N7CCN(C(=O)c8cccc(-c9ccccn9)c8)CC7)c6nc-5c4c3C2=O)NC(=O)/C(C)=C\C=C\[C@H](C)[C@H](O)[C@@H](C)[C@@H](O)[C@@H](C)[C@H](OC(C)=O)[C@@H]1C [Compound 30g, (7S,9E,11S,12R,13S,14R,15R,16R,17S,18S,19E,21Z)-2,15,17-Trihydroxy-11-methoxy-3,7,12,14,16,18,22,30-octamethyl-6,23,37-trioxo-32-{4-[3-(pyridin-2-yl)benzoyl]piperazin-1-yl}-8,27,38-trioxa-24,34-diazahexacyclo[23.11.1.1^4,7.0^5,36.0^26,35.0^28,33]octatriaconta-1(36)2,4,9,19,21,25,28,30,32,34-undecaen-13-yl acetate] | 0.16 |  | 1.2 | 0.032 µM | 
CO[C@H]1/C=C/O[C@@]2(C)Oc3c(C)c(O)c4c(=O)c(c5oc6cc(N7CCN(CC(C)C)CC7)cc(OCCCCN7CCN(C(=O)Cn8ccnc8)CC7)c6nc-5c4c3C2=O)NC(=O)/C(C)=C\C=C\[C@H](C)[C@H](O)[C@@H](C)[C@@H](O)[C@@H](C)[C@H](OC(C)=O)[C@@H]1C [Compound 6d, (7S,9E,11S,12R,13S,14R,15R,16R,17S,18S,19E,21Z)-2,15,17-Trihydroxy-32-(4-{4-[2-(1H-imidazol-1-yl)acetyl]piperazin-1-yl}butoxy)-11-methoxy-3,7,12,14,16,18,22-heptamethyl-30-[4-(2-methylpropyl)piperazin-1-yl]-6,23,37-trioxo-8,27,38-trioxa-24,34-diazahexacyclo[23.11.1.1^4,7.0^5,36.0^26,35.0^28,33]octatriaconta-1(36)2,4,9,19,21,25,28,30,32,34-undecaen-13-yl acetate] | 0.06 | 0.058 µM | 2.4 |  | 
CO[C@H]1/C=C/O[C@@]2(C)Oc3c(C)c(O)c4c(=O)c(c5oc6cc(C)cc(N7CCN(C)CC7)c6nc-5c4c3C2=O)NC(=O)/C(C)=C\C=C\[C@H](C)[C@H](O)[C@@H](C)[C@@H](O)[C@@H](C)[C@H](OC(C)=O)[C@@H]1C [Compound 30a, (7S,9E,11S,12R,13S,14R,15R,16R,17S,18S,19E,21Z)-2,15,17-Trihydroxy-11-methoxy-3,7,12,14,16,18,22,30-octamethyl-32-(4-methylpiperazin-1-yl)-6,23,37-trioxo-8,27,38-trioxa-24,34-diazahexacyclo[23.11.1.1^4,7.0^5,36.0^26,35.0^28,33]octatriaconta-1(36)2,4,9,19,21,25,28,30,32,34-undecaen-13-yl acetate] | <0.06 |  |  |  | <0.016 µM
